The record followed here is US20100166859A1, “NOVEL NUTRACEUTICAL COMPOSITIONS AND USE THEREOF” (priority 2006, published 2010).

Where a SMILES comes first, the peptide text is derived from it. [ ]: non-standard residue; d: D form. ξ: configuration not given here. ξP = O=C(O)C1CCCN1

The target in assay [1] is AMPA receptor. Nature of the assay: [3H] AMPA radioligand binding assay. The following applies: displacement of 5 nM [3H] AMPA, rat cerebral cortex membranes, 25° C., 90 min; semi-quantitative, duplicates. How it is done:
Polypeptides or amino acid compositions of the instant invention were tested for the ability to bind to the AMPA receptor using a previously validated [3H] AMPA radioligand to binding assay (see, for example Olsen R W, Szamraj O, Houser C R Brain Res. 1987; 402(2):243-54.). Upon binding, the peptide is displacing the parent radioligand from the glutamate binding site of the AMPA receptor. Binding inhibition of 50% or more is generally considered as significant.
The membrane has been prepared as described in example 1.
Frozen pellets were thawed at room temperature and washed three times by resuspension in 50 mM Tris-acetate (pH 7.4) and centrifugation. Final pellets were suspended at concentrations of 2 to 3 mg/ml in 50 mM Tris-HCl (pH 7.4, 200 mM KSCN). Binding reactions were initiated by the addition of 200 μg of freshly prepared membranes to reaction mixtures (about 1 ml final volume) containing 5 nM [3H] AMPA at 25° C. in the presence of a range of peptide concentrations (0.5 μM, 1 μM, 10 μM, 100 μM and 200 μM). Incubation time was 90 min. Non-specific binding was determined using 1000 μM unlabelled L-Glutamic acid. […]
(§1) Assay results are presented as the % inhibition of specific binding. […] Semi-quantitative follow-up to estimate IC50 was done in duplicates at the indicated peptide concentrations.

In assay [2] the test system is AMPA receptor. Nature of the assay: Whole cell patch-clamp on CA1 pyramidal cells in brain slices, synaptic AMPA responses. Format: cell-based, C57BL/6 mice. On the procedure:
Whole cell patch-clamp experiments were performed in parasagital brain slices on CAI pyramidal cells. The animals used for this study were C57BL/6 mice. After decapitation of the mice brains were quickly removed and placed in aerated (95% O2, 5% CO2) artificial cerebrospinal fluid (ASCF) solution at 4° C. The ACSF solution was composed of (mM): 124 NaCl, 2.5 KCl, 1.3 MgCl2, 26 NaHCO3, 1.25 NaH2PO4, 2.5 CaCl2 […] Synaptic AMPA responses were evoked every 10 seconds with a bipolar platinum electrode and recorded in the voltage clamp configuration with 4-5 MΩ patch pipette at a holding potential of −60 mV. Baseline recordings were performed with 100 μM picrotoxin in the ACSF. After establishing a stable synaptic AMPA response the tripeptide EPP (140 μM) was added to the bath, continuing the recording for an additional 20 to 30 minutes. At the end of every experiment NBQX (20 μM) was bath applied to block the AMPA response. The residual trace was subtracted from the previous recordings to show only the AMPA current. […]
Parameters measured to estimate the action of EPP were the holding current, amplitude, and initial slope of the AMPA responses. Additionally the amplitude ratio and initial slope ratio of the two AMPA responses from the paired pulse experiments was determined.

The target of assay [3] is glycine co-agonist site on the NMDA receptor (Rattus norvegicus, UniProt P35439). Nature of the assay: [3H] MDL-105519 radioligand binding assay, glycine co-agonist site of the NMDA receptor. The following applies: displacement of 0.33 nM [3H] MDL-105519, rat cerebral cortex membranes. On the procedure: Polypeptides or amino acid compositions of the instant invention were tested for the ability to bind to the glycine co-agonist site on the NMDA receptor using a previously validated [3H] MDL-105519 radioligand binding assay (see, for example Siegel B W, Sreekrishna K, Baron B M. Eur J Pharmacol. 1996 Oct. 3; 312(3):357-65). Upon binding, the peptide is displacing the parent radioligand from the NR1a binding site of the NMDA receptor. Binding inhibition of 50% or more is generally considered as significant.
Crude synaptic membranes used in the assay were prepared using rat cerebral cortex tissue (male Wistar rats) and extensively washed using the procedures described previously (Haring et al., 1991, J. Neurochem. 57:323-331). Briefly, tissue which has been stored at −80° C. was homogenized in ice-cold 5 mM Tris (pH 7.4) using a Polytron and then pelleted by centrifugation at 48,000 g for 20 minutes. The resulting supernatant was discarded, and the membranes washed three times in cold buffer. […]
Frozen pellets were thawed at room temperature and washed three times by resuspension in 50 mM Tris-acetate (pH 7.4) and centrifugation. […] Non-specific binding was determined using 10 μM unlabelled MDL-105519. […]
as §1

As usually defined, the IC50 is the concentration that inhibits the measured activity by half. On AMPA receptor [1], `NC(CCC(=O)O)C(=O)N1CCCC1C(=O)N1CCCC1C(=O)O` (stereo not drawn) [EPP] (H-Glu-Pro-Pro-OH; configuration not given here) registered a 50% inhibitory concentration (IC50) of 14 µM. Further, the “amplitude of the first synaptic AMPA response” value with AMPA receptor [2] (140 μM EPP in bath, baseline −83.9±14.1 pA, p<0.05, holding potential −60 mV) is recorded as −130.6±22.6 pA. Further, the “change in slope of the AMPA response” value in the assay with AMPA receptor [2] (140 μM EPP versus baseline, p=0.06) is “just failed to reach significance”.

`NCC(=O)NCC(=O)N1CCCC1C(=O)O` (stereo not drawn) [GGP] (H-Gly-Gly-[ξP]-OH) came in with an IC50 in assay [3] (4° C., 30 min, semi-quantitative, duplicates) of 11.3 µM.

In the case of `O=C(O)/C(=C/c1c(C(=O)O)[nH]c2cc(Cl)cc(Cl)c12)c1ccccc1` [MDL-105519, reference compound], the IC50 in assay [3] (reference compound) worked out at 0.0096 µM.
